Assay results published in patent US10081631B2, “2-(1H-indazol-3-yl)-1H-imidazo[4,5-C]pyridine and therapeutic uses thereof” (Samumed, LLC, priority 2014, dated 2018).

Legend:
[1] = test system: Wnt activity (Sp5-Luc reporter, SW480 colon carcinoma cells); assay: Screening assay for Wnt activity: Sp5-Luc reporter gene assay in SW480 cells; format: cell-based; conditions: Homo sapiens, 42 h incubation, luminescence
In short: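 IC50 values come from variable-slope four-parameter fits of luciferase signal normalized to DMSO wells. Stable Sp5-Luc reporter SW480 colon carcinoma cells were exposed to compounds in a 3-fold dilution series (source plates from 10 mM stock) for forty-two hours at 37 °C.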

[2] = test system: primary human fibroblasts derived from IPF patients (LL29 cells); assay: Inhibition of fibrosis: TGF-β1-treated primary human fibroblasts from IPF patients (LL29), αSMA staining; format: cell-based; conditions: Fibroblast, 96 h, TGF-β1 20 ng/mL, 4 days, % αSMA-positive cells
Excerpt: The above synthesized compounds were screened using primary human fibroblasts (derived from IPF patients) treated with TGF-β1 to determine their ability to inhibit the fibrotic process.
Primary human fibroblasts derived from IPF patients (LL29 cells) [^1Xiaoqiu Liu, et. al., “Fibrotic Lung Fibroblasts Show Blunted Inhibition by cAMP Due to Deficient cAMP Response Element-Binding Protein Phosphorylation”, Journal of Pharmacology and Experimental Therapeutics (2005), 315(2), 678-687; ^2Watts, K. L., et. al., “RhoA signaling modulates cyclin D1 expression in human lung fibroblasts; implications for idiopathic pulmonary fibrosis”, Respiratory Research (2006), 7(1), 88] were obtained from American Type Culture Collection (ATCC) and expanded in F12 medium supplemented with 15% Fetal Bovine Serum and Penicillin/Streptomycin.
Each compound was dissolved in DMSO as a 10 mM stock and used to prepare compound source plates. Serial dilution (1:2, 11-point dose-response curves from 10 μM to 1.87 nM) and compound transfer was performed using the ECHO 550 (Labcyte, Sunnyvale, Calif.) into 384-well clear bottom assay plates (Greiner Bio-One) with appropriate DMSO backfill for a final DMSO concentration of 0.1%. LL29 cells were plated at 1,500 cells/well in 80 μl/well F12 medium supplemented with 1% Fetal Bovine Serum. One hour after addition of the cells, TGF-β1 (Peprotech; 20 ng/mL) was added to the plates to induce fibrosis (ref 1 and 2 above). Wells treated with TGF-β1 and containing DMSO were used as controls. Cells were incubated at 37° C. and 5% CO2 for 4 days. Following incubation for 4 days, SYTOX green nucleic acid stain (Life Technologies [Thermo Fisher Scientific]) was added to the wells at a final concentration of 1 uM and incubated at room temperature for 30 min. Cells were then fixed using 4% formaldehyde (Electron Microscopy Sciences), washed 3 times with PBS followed by blocking and permeabilization using 3% Bovine Serum Albumin (BSA; Sigma) and 0.3% Triton X-100 (Sigma) in PBS. Cells were then stained with antibody specific to α-smooth muscle actin (αSMA; Abcam) (ref 1 and 2 above) in 3% Bovine Serum Albumin (BSA; Sigma) and 0.3% Triton X-100 (Sigma) in PBS, and incubated overnight at 4° C. Cells were then washed 3 times with PBS, followed by incubation with Alexa Flor-647 conjugated secondary antibody (Life Technologies [Thermo Fisher Scientific]) and DAPI at room temperature for 1 hour. Cells were then washed 3 times with PBS and plates were sealed for imaging. αSMA staining was imaged by excitation at 630 nm and emission at 665 nm and quantified using the Compartmental Analysis program on the CellInsight CX5 (Thermo Scientific). Dead or apoptotic cells were excluded from analysis based on positive SYTOX green staining. % of total cells positive for αSMA were counted in each well and normalized to the average of 11 wells treated with TGF-β1 on the same plate using Dotmatics' Studies Software. The normalized averages (fold change over untreated) of 3 replicate wells for each compound concentration were used to create dose-responses curves and EC50 values were calculated using non-linear regression curve fit in the Dotmatics' Studies Software. The EC50 values are reported.

IC50 [1] [nM]	SMILES	EC50 [2] [nM]
8	c1cncc(-c2ccc3[nH]nc(-c4nc5c(-c6cccnc6)nccc5[nH]4)c3c2)c1 [Compound 82, 4-(Pyridin-3-yl)-2-(5-(pyridin-3-yl)-1H-indazol-3-yl)-1H-imidazo[4,5-c]pyridine]	9
30.8	CC(C)C(=O)Nc1cncc(-c2ccc3[nH]nc(-c4nc5c(-c6cccs6)nccc5[nH]4)c3c2)c1 [Compound 295, N-(5-(3-(4-(Thiophen-2-yl)-1H-imidazo[4,5-c]pyridin-2-yl)-1H-indazol-5-yl)pyridin-3-yl)isobutyramide]	186
3	CC(C)C(=O)Nc1cncc(-c2ccc3[nH]nc(-c4nc5c(-c6cccnc6)nccc5[nH]4)c3c2)c1 [Compound 87, N-(5-(3-(4-(Pyridin-3-yl)-1H-imidazo[4,5-c]pyridin-2-yl)-1H-indazol-5-yl)pyridin-3-yl)isobutyramide]	295
633	Fc1cccc(-c2nccc3[nH]c(-c4n[nH]c5ccc(-c6ccccn6)cc45)nc23)c1 [Compound 1785, 4-(3-Fluorophenyl)-2-(5-(pyridin-2-yl)-1H-indazol-3-yl)-1H-imidazo[4,5-c]pyridine]	9
711	CN1CCN(c2nccc3[nH]c(-c4n[nH]c5ccc(-c6cncc(NC(=O)C7CCCC7)c6)cc45)nc23)CC1 [Compound 229, N-(5-(3-(4-(4-Methylpiperazin-1-yl)-1H-imidazo[4,5-c]pyridin-2-yl)-1H-indazol-5-yl)pyridin-3-yl)cyclopentanecarboxamide]	9990
> 10000	c1cc2[nH]c(-c3n[nH]c4ccc(-c5cncc(CNCC6CCCC6)c5)cc34)nc2c(-c2ccoc2)n1 [Compound 284, 1-Cyclopentyl-N-((5-(3-(4-(furan-3-yl)-1H-imidazo[4,5-c]pyridin-2-yl)-1H-indazol-5-yl)pyridin-3-yl)methyl)methanamine]	9
10	CCC(=O)Nc1cncc(-c2ccc3[nH]nc(-c4nc5c(-c6cccs6)nccc5[nH]4)c3c2)c1 [Compound 287, N-(5-(3-(4-(Thiophen-2-yl)-1H-imidazo[4,5-c]pyridin-2-yl)-1H-indazol-5-yl)pyridin-3-yl)propionamide]	62
673	CN1CCN(c2nccc3[nH]c(-c4n[nH]c5ccc(-c6cncc(NC(=O)CC(C)(C)C)c6)cc45)nc23)CC1 [Compound 224, 3,3-Dimethyl-N-(5-(3-(4-(4-methylpiperazin-1-yl)-1H-imidazo[4,5-c]pyridin-2-yl)-1H-indazol-5-yl)pyridin-3-yl)butanamide]	1090
245	CC(C)C(=O)Nc1cncc(-c2ccc3[nH]nc(-c4nc5c(N6CCN(C)CC6)nccc5[nH]4)c3c2)c1 [Compound 217, N-(5-(3-(4-(4-Methylpiperazin-1-yl)-1H-imidazo[4,5-c]pyridin-2-yl)-1H-indazol-5-yl)pyridin-3-yl)isobutyramide]	4450
51.4	O=C(Nc1cncc(-c2ccc3[nH]nc(-c4nc5c(-c6ccccn6)nccc5[nH]4)c3c2)c1)C1CCC1 [Compound 150, N-(5-(3-(4-(Pyridin-2-yl)-1H-imidazo[4,5-c]pyridin-2-yl)-1H-indazol-5-yl)pyridin-3-yl)cyclobutanecarboxamide]	1520
42.9	CC(C)Nc1cncc(-c2ccc3[nH]nc(-c4nc5c(-c6ccc(F)cc6)nccc5[nH]4)c3c2)c1 [Compound 38, 5-(3-(4-(4-Fluorophenyl)-1H-imidazo[4,5-c]pyridin-2-yl)-1H-indazol-5-yl)-N-isopropylpyridin-3-amine]	126
21	CN1CCN(c2nccc3[nH]c(-c4n[nH]c5ccc(-c6cncnc6)cc45)nc23)CC1 [Compound 234, 4-(4-Methylpiperazin-1-yl)-2-(5-(pyrimidin-5-yl)-1H-indazol-3-yl)-1H-imidazo[4,5-c]pyridine]	280
10	Fc1cccc(-c2nccc3[nH]c(-c4n[nH]c5ccc(-c6cncc(CN7CCC(F)(F)C7)c6)cc45)nc23)c1 [Compound 25, 2-(5-(5-((3,3-Difluoropyrrolidin-1-yl)methyl)pyridin-3-yl)-1H-indazol-3-yl)-4-(3-fluorophenyl)-1H-imidazo[4,5-c]pyridine]	56
6	CC(C)Nc1cncc(-c2ccc3[nH]nc(-c4nc5c(-c6cc(F)cc(NCCN(C)C)c6)nccc5[nH]4)c3c2)c1 [Compound 428, N^1-(3-Fluoro-5-(2-(5-(5-(isopropylamino)pyridin-3-yl)-1H-indazol-3-yl)-1H-imidazo[4,5-c]pyridin-4-yl)phenyl)-N^2,N^2-dimethylethane-1,2-diamine]	9
1	CN(C)Cc1cncc(-c2ccc3[nH]nc(-c4nc5c(-c6cccc(F)c6)nccc5[nH]4)c3c2)c1 [Compound 13, 1-(5-(3-(4-(3-Fluorophenyl)-1H-imidazo[4,5-c]pyridin-2-yl)-1H-indazol-5-yl)pyridin-3-yl)-N,N-dimethylmethanamine]	9
1	CCCC(=O)Nc1cncc(-c2ccc3[nH]nc(-c4nc5c(-c6ccsc6)nccc5[nH]4)c3c2)c1 [Compound 251, N-(5-(3-(4-(Thiophen-3-yl)-1H-imidazo[4,5-c]pyridin-2-yl)-1H-indazol-5-yl)pyridin-3-yl)butyramide]	18
243	O=C(CC1CCNCC1)Nc1cncc(-c2ccc3[nH]nc(-c4nc5c(-c6cccc(F)c6)nccc5[nH]4)c3c2)c1 [Compound 1777, N-(5-(3-(4-(3-Fluorophenyl)-1H-imidazo[4,5-c]pyridin-2-yl)-1H-indazol-5-yl)pyridin-3-yl)-2-(piperidin-4-yl)acetamide]	107
32.6	O=C(Nc1cncc(-c2ccc3[nH]nc(-c4nc5c(-c6ccc(F)s6)nccc5[nH]4)c3c2)c1)C1CCC1 [Compound 332, N-(5-(3-(4-(5-Fluorothiophen-2-yl)-1H-imidazo[4,5-c]pyridin-2-yl)-1H-indazol-5-yl)pyridin-3-yl)cyclobutanecarboxamide]	363
187	CS(=O)(=O)NCc1cc(F)cc(-c2nccc3[nH]c(-c4n[nH]c5ccc(-c6cncc(CNCc7ccccc7)c6)cc45)nc23)c1 [Compound 413, N-(3-(2-(5-(5-((Benzylamino)methyl)pyridin-3-yl)-1H-indazol-3-yl)-1H-imidazo[4,5-c]pyridin-4-yl)-5-fluorobenzyl)methanesulfonamide]	9
9	CC(=O)c1ccc(-c2nccc3[nH]c(-c4n[nH]c5ccc(-c6cncc(NC(=O)Cc7ccccc7)c6)cc45)nc23)s1 [Compound 374, N-(5-(3-(4-(5-Acetylthiophen-2-yl)-1H-imidazo[4,5-c]pyridin-2-yl)-1H-indazol-5-yl)pyridin-3-yl)-2-phenylacetamide]	9
126	O=C(Nc1cncc(-c2ccc3[nH]nc(-c4nc5c(-c6ccsc6)nccc5[nH]4)c3c2)c1)C1CC1 [Compound 253, N-(5-(3-(4-(Thiophen-3-yl)-1H-imidazo[4,5-c]pyridin-2-yl)-1H-indazol-5-yl)pyridin-3-yl)cyclopropanecarboxamide]	544
69.1	O=C(Cc1ccccc1)Nc1cncc(-c2ccc3[nH]nc(-c4nc5c(-c6ccsc6)nccc5[nH]4)c3c2)c1 [Compound 244, 2-Phenyl-N-(5-(3-(4-(thiophen-3-yl)-1H-imidazo[4,5-c]pyridin-2-yl)-1H-indazol-5-yl)pyridin-3-yl)acetamide]	203

SMILES	IC50 [1] [nM]	EC50 [2] [nM]
Fc1cccc(-c2nccc3[nH]c(-c4n[nH]c5ccc(C6=CCNCC6)cc45)nc23)c1 [Compound 1770, 4-(3-Fluorophenyl)-2-(5-(1,2,3,6-tetrahydropyridin-4-yl)-1H-indazol-3-yl)-1H-imidazo[4,5-c]pyridine]	658	9990
